Test results reported in PubChem BioAssay AID652167 (The Scripps Research Institute Molecular Screening Center, 2013).
Activity calls are given as the source filed them. No rule for the calls is given here.

How the values were obtained:
[1] = cell viability loss, WST reduction – absorbance, cytotoxicity control for NOD2-RIPK2 interaction inhibitor project, late-stage follow-up (AID 652167); details: WST cytotoxicity, absorbance 620 nm; WST absorbance; at 10 µM; stronger effect = lower value
[2] = system: WST cytotoxicity, absorbance 620 nm; assay: as above

Row | SMILES | absorbance [1] | IC50 [2]
1 | Cc1nc([N+](=O)[O-])c(Br)n1Cc1ccccc1 | 0.991 | > 10 µM (inactive)
2 | Cc1cc(S(=O)(=O)N2CCCCCC2)ccc1F | 1 | > 10 µM (inactive)
3 | Cc1ccc(S(=O)(=O)N2CCCCCC2)cc1[N+](=O)[O-] | 0.99 | > 10 µM (inactive)
4 | Cc1ncc([N+](=O)[O-])n1Cc1ccc(Cl)c(Cl)c1 | 1.01 | > 10 µM (inactive)
5 | O=S(=O)(c1ccccc1)N1CCCCCC1 | 0.969 | > 10 µM (inactive)
6 | Cc1ccc(C(C[N+](=O)[O-])n2nc(C)cc2C)cc1 (configuration not stated) | 0.968 | > 10 µM (inactive)
7 | O=[N+]([O-])c1cc(S(=O)(=O)N2CCCCCC2)ccc1F | 0.991 | > 10 µM (inactive)
8 | O=[N+]([O-])c1cccc(S(=O)(=O)N2CCCCCC2)c1 | 0.999 | > 10 µM (inactive)
9 | O=S(=O)(c1ccc(F)cc1)N1CCCCCC1 | 1 | > 10 µM (inactive)
10 | COc1ccc(C(C[N+](=O)[O-])n2nc(C)cc2C)cc1 (configuration not stated) | 0.973 | > 10 µM (inactive)
11 | Cc1nc([N+](=O)[O-])c(Br)n1Cc1ccc(Cl)c(Cl)c1 | 0.974 | > 10 µM (inactive)
